The record followed here is patent US20260355169A1, “METHODS OF TREATING CANCERS USING ISOQUINOLINE OR 6-AZA-QUINOLINE DERIVATIVES” (Black Diamond Therapeutics, Inc., priority 2022, published 2026).

The test has as its system BaF3 BRAF-KIAA1549 fusion cells. As to the kind of experiment: BaF3 BRAF-KIAA1549 fusion cell proliferation assay. The test is classed as cell-based. Conditions: Mus musculus, BaF3, 96 h, read-out: IC50, inhibition of cell growth, BaF3-BRAF:KIAA1549 Fusion. As to the method: Retroviral Production: The BRAF-KIAA1549 fusion mutant was subcloned into pMXs-IRES-Blasticidin (RTV-016, Cell Biolabs, San Diego, CA). […]. Briefly, HEK 293T cells were plated in Poly-D-lysine coated 6-well plate (2.5×10^5 cells per well) and incubated overnight. The next day, retroviral plasmids (1 μg of BRAF-KIAA fusion mutant, 0.32 μg of pCMV-Gag-Pol and 0.165 μg pCMV-VSV-G) were mixed in 300 μL of Optimem (31985, Life Technologies). The mixture was incubated at room temperature for 5 minutes and then added to Optimem containing transfection reagent Lipofectamine (11668, Invitrogen) and incubated for 20 minutes. The mixture was then added dropwise to HEK 293T cells. The next day the medium was replaced with fresh culture medium and retrovirus was harvested at 24 hours.
Generation of BRAF-KIAA1549 fusion stable cell line: BaF3 cells were plated in V-bottom 96 well plate (COSTAR #3894) in 80 μL of RPMI/10% FBS and 0.01 ng/mL mouse IL-3, supplemented with 8 μg/mL polybrene (4×10^4 cells/well). Cells were transduced with 20 μL of BRAF-KIAA1549 fusion viral supernatant by centrifuging for 30 minutes at 1000 rpm. Cells were placed in a 37 °C incubator overnight. Next day 100 μL of RPMI/10% FBS and 0.01 ng/mL mouse IL-3 was added. After 24 hours, 100 μL of cells were transferred to a 24 well plate containing 900 μL of RPMI/10% FBS and 15 μg/mL Blasticidin. Contents of the 24 well plate were sampled for cell viability via CellTiterGlo (Promega) over a 2-week period.
Assay for cell proliferation: BaF3 BRAF-KIAA1549 fusion cells were resuspended at 1.5×10^5 c/mL in RPMI containing 10% Heat Inactivated FBS, 1% L-glutamine and dispensed in duplicate ([…]) into 384 well plates. To determine the effect of compound on cell proliferation, BaF3 BRAF-KIAA1549 fusion cells were incubated for 96 hours in the presence of vehicle control (DMSO) or compound at varying concentrations. Inhibition of cell growth was determined by luminescent quantification (Envision by Perkin Elmer) of intracellular ATP content using CellTiterGlo (Promega), according to the protocol provided by the manufacturer. To determine the IC50 values, the vehicle-treated cells were normalized as viable cells and analyzed using the CDD Vault, Collaborative Drug Discovery, Burlingame, CA (the Levenberg-Marquardt algorithm; Levenberg, K, […]; Marquardt, D., 1963).
Table A assigns each compound a code for potency in the BaF3 BRAF-KIAA1549 fusion cell proliferation assay: A, B, C, or D. According to the code, A represents an IC50 value<20 nM; B represents an IC50 value≥20 nM and <100 nM; C represents an IC50 value≥100 nM and <500 nM; and D represents an IC50 value≥500 nM.
As usually defined, the IC50 is the concentration that gives 50% inhibition. In the case of `CNc1cc2ncc(-c3cc(NC(=O)[C@H](C)n4cnc(C(F)(F)F)n4)ccc3C)cc2cn1` [compound 68], the IC50 is 20 to 100 nM.

In the case of `CNc1cc2ncc(-c3cc(NC(=O)c4ccnc(C(C)(C)F)c4)c(F)cc3C)cc2cn1` [compound 222], the IC50 was in the range of 20 to 100 nM.

Regarding `CNc1cc2ncc(-c3cc(NC(=O)c4n[nH]c5c4C[C@@H]4C[C@H]54)cnc3C)cc2cn1` [compound 252], the 50% inhibitory concentration (IC50) lay in the range of 20 to 100 nM.

As to `CNc1cc2c(C#N)cc(-c3cc(NC(=O)c4ccnc(C(F)(F)F)c4)ccc3C)cc2cn1` [compound 273], the IC50 was 100 to 500 nM.

Regarding `CNc1cc2ncc(-c3cc(NC(=O)c4cc(C(F)(F)F)c(C)cn4)ccc3C)cc2cn1` [compound 5], the IC50 was in the range of 20 to 100 nM.

Consider `CNc1cc2ncc(-c3cc(NC(=O)c4noc5c4C[C@@H](C)CC5)ccc3C)cc2cn1` [compound 236], for which the IC50 lay in the range of 20 to 100 nM.

Take `CNc1cc2ncc(-c3cc(NC(=O)c4cnc5n4C[C@@H](C)CC5)ccc3C)cc2cn1` [compound 231]: the IC50 fell in the range of 20 to 100 nM.

On to `CNc1cc2ncc(-c3cc(NC(=O)N4CC[C@@H](CC(F)(F)F)C4)ccc3C)cc2cn1` [compound 267], for which the IC50 is < 20 nM.

As to `CNc1cc2ncc(-c3c(C)ncc(NC(=O)c4cc(C(C)(C)C#N)ccn4)c3Cl)cc2cn1` [compound 197], the IC50 was > 500 nM.

As for `CNc1cc2ncc(-c3cc(NC(=O)c4ccnc(C(C)(C)F)c4)cnc3C)cc2cn1` [compound 24], the IC50 was < 20 nM.

`CCNc1cc2ncc(-c3cc(NC(=O)c4cc(C(C)(C)C#N)ccn4)ccc3C)cc2cn1` [compound 173]: the IC50 is 20 to 100 nM.

Take `CNc1cc2ncc(-c3cc(NC(=O)c4cc(C(F)(F)F)c(F)cn4)cnc3C)cc2cn1` [compound 60]: the concentration for half-maximal inhibition (IC50) was < 20 nM.

`CNc1cc2ncc(-c3cc(NC(=O)c4cncc(C(F)(F)F)c4)ccc3C)cc2cn1` [compound 3]: the 50% inhibitory concentration (IC50) is < 20 nM.

As for `CNc1cc2ncc(-c3cc(NC(=O)c4nccc5c4OCCC5O)cnc3C)cc2cn1` (centres unmarked) [compound 211], the half-inhibitory concentration (IC50) was > 500 nM.

As for `CNc1cc2ncc(-c3cc(NC(=O)C[C@H]4C[C@H](C(F)(F)F)CCO4)cnc3C)cc2cn1` [compound 36], the half-maximal inhibitory concentration (IC50) was in the range of 100 to 500 nM.

`CNc1cc2ncc(-c3cc(NC(=O)c4cncc(C(F)(F)F)c4)cnc3C)cc2cn1` [compound 21]: the IC50 lay in the range of 20 to 100 nM.

On to `Cc1ccc(NC(=O)c2cc(C(C)(C)C#N)ccn2)cc1-c1ccc2c3c(ncc2c1)NC(=O)C3` [compound 275], for which the IC50 was 20 to 100 nM.

As for `CNc1cc2ncc(-c3cc(NC(=O)c4cc(C(C)(C)C#N)ccn4)nnc3C)cc2cn1` [compound 77], the IC50 is 20 to 100 nM.

Take `CNc1cc2ncc(-c3cc(NC(=O)c4cc(C(O)C5CC5)ccn4)cnc3C)cc2cn1` (centres unmarked) [compound 201]: the half-inhibitory concentration (IC50) lay within 20 to 100 nM.

`CNc1cc2ncc(-c3cc(NC(=O)c4cnn5c4CC(C)CC5)ccc3C)cc2cn1` (centres unmarked) [compound 265]: the half-inhibitory concentration (IC50) is < 20 nM.

Regarding `CNc1cc2ncc(-c3cc(NC(=O)c4cnc5n4CCCCC5)cnc3C)cc2cn1` [compound 232], the IC50 is 100 to 500 nM.

For the molecule `CNc1cc2ncc(-c3cc(NC(=N)c4cc(C(F)(F)F)ccn4)cnc3C)cc2cn1` [compound 64], the concentration for half-maximal inhibition (IC50) is > 500 nM.

For `CCC(OC)c1ccnc(C(=O)Nc2cnc(C)c(-c3cnc4cc(NC)ncc4c3)c2)c1` (centres unmarked) [compound 260], the half-inhibitory concentration (IC50) lay within 20 to 100 nM.

For `CNc1cc2ncc(-c3cc(NC(=O)c4noc5c4CCCCC5)cnc3C)cc2cn1` [compound 245], the half-maximal inhibitory concentration (IC50) lay in the range of 20 to 100 nM.

Regarding `CNc1cc2ncc(-c3ccc(F)c(NC(=O)c4cc(C(C)(C)C#N)ccn4)c3)cc2cn1` [compound 45], the IC50 was 100 to 500 nM.

Consider `CNc1cc2ncc(-c3cc(NC(=O)c4nn(C)c5c4CCCC5)cnc3C)cc2cn1` [compound 233], for which the concentration for half-maximal inhibition (IC50) is 20 to 100 nM.

On to `CNc1cc2ncc(-c3cc(NC(=O)c4cc(C(C)(F)F)ccn4)ccc3C)cc2cn1` [compound 12], for which the IC50 fell in the range of 20 to 100 nM.

For `CNc1cc2ncc(-c3cc(NC(=O)c4cc(C(F)F)ccn4)ccc3C)cc2cn1` [compound 11], the IC50 lay in the range of 20 to 100 nM.

For the molecule `CNc1cc2ncc(-c3cc(NC(=O)c4ccnc(C(F)(F)F)c4)cnc3C)cc2cn1` [compound 27], the 50% inhibitory concentration (IC50) is < 20 nM.

In the case of `CNc1cc2ncc(-c3cc(NC(=O)c4cc(C5(C#N)CCC5)ccn4)cnc3C)cc2cn1` [compound 31], the IC50 lay in the range of 20 to 100 nM.

For `CNc1cc2ncc(-c3cc(NC(=O)c4cc(C(O)(O)C(F)(F)F)ccn4)cnc3C)cc2cn1` [compound 206], the half-maximal inhibitory concentration (IC50) is 20 to 100 nM.

For the molecule `CNc1cc2ncc(-c3cc(NC(=O)c4cnc5n4CC(C(F)F)CC5)cnc3C)cc2cn1` (centres unmarked) [compound 251], the IC50 fell in the range of 100 to 500 nM.

Turning to `CNc1cc2ncc(-c3cc(NC(=O)C[C@@H]4C[C@H](C(F)(F)F)CCO4)cnc3C)cc2cn1` [compound 35], the half-inhibitory concentration (IC50) fell in the range of 20 to 100 nM.

Turning to `CNc1cc2ncc(-c3cc(NC(=O)c4nccc(C(F)(F)F)c4F)cnc3C)cc2cn1` [compound 52], the half-inhibitory concentration (IC50) was < 20 nM.

`CNc1cc2ncc(-c3cc(NC(=O)N(C)c4cc(C(F)F)ccn4)ccc3C)cc2cn1` [compound 189]: the 50% inhibitory concentration (IC50) is 100 to 500 nM.

Take `CNc1cc2ncc(-c3cc(NC(=O)c4cnc5n4CC(C)CC5)cnc3C)cc2cn1` (centres unmarked) [compound 225]: the IC50 lay within 20 to 100 nM.

In the case of `CNc1cc2ncc(-c3cc(NC(=O)c4csc5c4CCC(C)C5)cnc3C)cc2cn1` (centres unmarked) [compound 235], the IC50 fell in the range of 20 to 100 nM.

With `CNc1cc2ncc(-c3cc(NC(=O)c4cc(C(C)(C)F)ccn4)ccc3C)cc2cn1` [compound 13], the half-maximal inhibitory concentration (IC50) lay within 100 to 500 nM.

On to `CNc1cc2ncc(-c3cc(NC(=O)c4ccnc(C(C)(C)C#N)c4)c(F)cc3C)cc2cn1` [compound 217], for which the IC50 fell in the range of 20 to 100 nM.

`CNc1cc2ncc(-c3cc(NC(=O)c4cnc5n4CC(C(F)(F)F)CC5)ccc3C)cc2cn1` (centres unmarked) [compound 220]: the 50% inhibitory concentration (IC50) lay in the range of 20 to 100 nM.

In the case of `CNc1cc2ncc(-c3cc(NC(=O)c4cnn(CC(F)(F)F)c4C)cnc3C)cc2cn1` [compound 240], the half-inhibitory concentration (IC50) is > 500 nM.

With `CNc1cc2ncc(-c3cc(NC(=O)c4cccc5c4CCCC5=O)cnc3C)cc2cn1` [compound 198], the IC50 was > 500 nM.

As for `CNc1cc2ncc(-c3cc(NC(=O)c4cc([C@@H](C)C(C)(F)F)ccn4)cnc3C)cc2cn1` [compound 248], the half-inhibitory concentration (IC50) lay in the range of 20 to 100 nM.

As for `CNc1cc2ncc(-c3cc(NC(=O)c4cccc5c4CCC5=O)cnc3C)cc2cn1` [compound 212], the IC50 is > 500 nM.

As to `CCC(C)c1ccnc(C(=O)Nc2cnc(C)c(-c3cnc4cc(NC)ncc4c3)c2)c1` (centres unmarked) [compound 227], the IC50 lay in the range of 20 to 100 nM.

Turning to `CNc1cc2ncc(-c3cc(NC(=O)c4cc(C(C)(C)C#N)ccn4)ccc3F)cc2cn1` [compound 40], the IC50 was in the range of 20 to 100 nM.

Turning to `CCNc1cc2ncc(-c3cc(NC(=O)c4ccnc(C5(F)CC5)c4)ccc3C)cc2cn1` [compound 153], the IC50 lay in the range of 20 to 100 nM.

`CNc1cc2ncc(-c3cc(NC(=O)c4cc(C(C)(C)C#N)ccn4)c(Cl)cc3C)cc2cn1` [compound 50]: the half-maximal inhibitory concentration (IC50) was in the range of 100 to 500 nM.

On to `CNc1cc2ncc(-c3cc(NC(=O)CN4CCC[C@H](C(F)(F)F)C4)cnc3C)cc2cn1` [compound 62], for which the concentration for half-maximal inhibition (IC50) lay in the range of 20 to 100 nM.

For `Cc1ccc(NC(=O)c2ccnc(C(C)(C)F)c2)cc1-c1ccc2c3c(ncc2c1)NC(=O)C3` [compound 276], the 50% inhibitory concentration (IC50) is < 20 nM.

With `CNc1cc2ncc(-c3cc(NC(=O)c4cc(C(C)(C)C#N)ccn4)c(F)cc3F)cc2cn1` [compound 43], the 50% inhibitory concentration (IC50) is 20 to 100 nM.

Take `CNc1cc2ncc(-c3cc(NC(=O)c4cc(C(C)(C)C#N)ccn4)c(F)cc3Cl)cc2cn1` [compound 37]: the IC50 was in the range of 20 to 100 nM.

Regarding `CNc1cc2ncc(-c3cc(NC(=O)c4cc(C(F)F)c(F)cn4)cnc3C)cc2cn1` [compound 66], the IC50 was in the range of 20 to 100 nM.

In the case of `CNc1cc2ncc(-c3cc(NC(=O)c4cnc5n4CCC(C)C5)ccc3C)cc2cn1` (centres unmarked) [compound 195], the half-maximal inhibitory concentration (IC50) was > 500 nM.

As to `CNc1cc2ncc(-c3cc(NC(=O)c4cc(C(F)(F)F)ccn4)c(F)cc3C)cc2cn1` [compound 224], the half-maximal inhibitory concentration (IC50) lay in the range of 100 to 500 nM.

`CNc1cc2ncc(-c3cc(NC(=O)c4cc(C(C)(C)C#N)ccn4)c(F)c(F)c3C)cc2cn1` [compound 51]: the concentration for half-maximal inhibition (IC50) was > 500 nM.
